Earlier results, collected in patent US10449129B2, “Encapsulates of salicylic acid and polysalicylic acid derivatives” (Biocogent, LLC, priority 2015, dated 2019).

Settings: room temperature

limit of solubility in water: approximately 0.2%
Compound: O=C(O)c1ccccc1O [SA, salicylic acid]
